# Source: patent US20190298743A1, “TREATMENT OF PAIN” (Takeda Pharmaceutical Company Limited, priority 2016, published 2019)
# Assays:
# PAR2 [1] = assay: BRET resensitisation assay, PAR2-RLuc8 with TGN38-venus in HEK293 cells; format: cell-based; details: 30 minute pre-treatment, all three proteases
# Protocol: BRET resensitisation assays were used to quantify export of PAR2 from the trans-golgi network (TGN38-venus) upon stimulation of receptor expressed at the cell surface with a variety of proteases. The assays were repeated with various inhibitors of signaling nodes to verify signaling mechanisms behind receptor resensitisation.
# After achieving ˜50% confluency within 10 cm dishes HEK293 cells were transiently transfected with PAR2-RLuc8 (1 μg) and TGN38-Venus (4 μg) using PEI as a transfection agent. 24 hours post transfection, cells were seeded into poly-D-lysine coated 96-well isoplates. BRET experiments were conducted the following day. Cells were allowed to equilibrate in either 1×HBSS (+0-28 g HEPES/100 ml, pH 7-40), […] Gallein (Gβγ inhibitor), 100 nM CRT0066101 (PKD inhibitor) or G06983 (PKC inhibitor) at 37° C. for 30 minutes before the addition of colenterazine H [5 μM]. Following a 5 minute incubation BRET was assessed using a LUMIstar Omega microplate reader (BMG LabTech, Offenburg, Germany), with luminescence being read at 535 nm and 475 nm. A 4 minute baseline was obtained before the addition of vehicle (1×HBSS) or protease, measurements were then continued for a further 30 minutes. BRET ratios were calculated using LUMIstar MARS analysis software and then corrected to baseline and vehicle treatments in Microsoft Excel 2013.
# PAR2 [2] = assay: FRET biosensors for compartmentalised cAMP, PKC and ERK signals in HEK cells and rat dorsal root ganglia neurons; format: cell-based
# Protocol: (§1) The contribution of endocytosis of protease-activated receptor-2 (PAR2) was evaluated for generation of signals in subcellular compartments that mediate protease-evoked sensitization of nociceptors. Bioluminescence resonance energy transfer (BRET) was used to assess the proximity of PAR2 to resident proteins of the plasma membrane (KRas) and endosomes (Rab5a) in HEK cells. […] Förster resonance energy transfer (FRET) biosensors targeted to the plasma membrane, cytosol or nucleus were used to examine the capacity of proteases to generate signals in subcellular compartments of HEK cells and rat dorsal root ganglia neurons. […] Dynamin inhibitor Dyngo4a, Clathrin inhibitor Pitstop2 and dominant negative β-arrestin inhibited trypsin-evoked endocytosis of PAR2, and prevented trypsin-evoked activation of cytosolic cAMP and PKC and nuclear ERK. […] To examine the link between PAR2 endocytosis, compartmentalized signaling and nociceptor sensitization, perforated patch clamp recordings were made from mouse dorsal root ganglia neurons. […] The effects of proteases on excitability were blocked by the PAR2 antagonist GB88. Thus, canonical and biased proteases sensitize nociceptors by distinct mechanisms. For canonical agonists, PAR2 endocytosis generates compartmentalized signals subcellular compartments that underlie sustained excitability of nociceptive neurons. Inhibiting endosomal signaling of PAR2 may provide a novel method of treating protease-evoked pain.
# PAR2 [3] = assay: BRET receptor trafficking, PAR2-RLuc8 with early endosomal marker Rab5a-venus in HEK293 cells; format: cell-based; details: for Effect on trypsin evoked internalisation, early endosomal marker: 30 μM inhibitor, 30 minute pre-treatment
# Protocol: (§2) Bret studies of receptor trafficking were conducted to quantify PAR2 internalisation (RIT-venus) and trafficking to early endosomes (Rab5a-venus) upon stimulation with different agonists.
# (§3) After achieving ˜50% confluency within 10 cm dishes HEK293 cells were transiently transfected with 1 μg PAR2-RLuc8 and 4 μg of either RIT-venus or Rab5a-venus using PEI as a transfection agent. 24 hours post transfection, cells were seeded into poly-D-lysine coated 96-well isoplates. […] When used endocytic inhibitors were diluted in 1×HBSS+1% dimethyl sulfoxide (DMSO). Following the replacement of culture media cells were allowed to equilibrate at 37° C. for 30 minutes before the addition of colenterazine H [5 μM]. After a further 5 minute incubation BRET was assessed using a LUMIstar Omega microplate reader (BMG LabTech, Offenburg, Germany), with luminescence being read at 535 nm and 475 nm. A 4 minute baseline was obtained before the addition of vehicle (1×HBSS+/−1% DMSO) or protease, measurements were then continued for a further 30 minutes. BRET ratios were calculated using LUMIstar MARS analysis software and then corrected to baseline and vehicle treatments in Microsoft Excel 2013.
# DRG neurons = assay: Perforated patch-clamp excitability (rheobase) of isolated DRG neurons; format: cell-based, mice; details: for Effect of inhibitor alone on rheobase: 0 or 30 min; for Effect on cathepsin S- or elastase-induced decrease in rheobase (sustained excitability) at 30 min / Effect on trypsin-induced decrease in rheobase (sustained excitability) at 30 min / Effect on protease induced decrease in rheobase (initial hyperexcitability) at 0 min: inhibitor 30 min before and during protease; for Effect on protease induced decrease in rheobase (initial hyperexcitability) at 0 min: trypsin, cathepsin S or elastase
# Protocol: To assess the effects of proteases on excitability of nociceptors, DRG neurons were preincubated with trypsin, cathepsin S, elastase or vehicle (control), washed, and rheobase and action potential discharge at a current of twice rheobase were measured at 0 min or 30 min after washing.
# DRG (T9-T13) from C57BL/6 mice were digested by incubation in collagenase (1 mg/ml, Worthington Biochemical, Lakewood, N.J.) and dispase (4 mg/ml, Roche Life Science, Indianapolis, Ind.) for 10 min at 37° C., and were dispersed by trituration with a fire-polished Pasteur pipette. Cells were plated onto coverslips coated with laminin (0.017 mg/ml) and poly-D-lysine (2 mg/ml) in 24-well plates. Neurons were cultured in F12 medium (Cat N668, Lot RNBD5333, Sigma-Aldrich, St Louis, Mo. USA) containing 10% fetal calf serum, with penicillin and streptomycin and maintained at 37° C. in a humidified atmosphere of 95% air and 5% CO2 until retrieval (16 h) for electrophysiological studies.
# Neuronal excitability was assessed by perforated patch-clamp recordings with amphotericin B (240 μg/ml) from small diameter neurons (<30 pF capacitance) in current clamp mode at room temperature. Only neurons with resting membrane potentials more negative than −40 mV were analyzed. Changes in excitability were quantified by measuring rheobase (minimum current to fire action potential) and numbers of action potentials discharged at twice rheobase. Recordings were made using Axopatch 200B amplifiers, digitized by Digidata 1322A and stored and processed using pClamp 10.1 software (Molecular Devices, Sunnyvale, Calif.). The recording chamber was continuously perfused with external solution at 2 ml/min. External solution was (mM): 140 NaCl, 5 KCl, 10 HEPES, 10 D-glucose, 1 MgCl2, 2 CaCl2; pH to 7.4 with 3 M NaOH. Pipette solution was (mM): 110 K-gluconate, 30 KCl, 10 HEPES, 1 MgCl2, 2 CaCl2; pH 7.25 with 1 M KOH.
# DRG neurons were pre-incubated with vehicle (control) or proteases using conditions that we have reported to cause robust hyperexcitability: trypsin (50 nM, 10 min), elastase (10 U/ml, 390 nM, 30 min), Cat-S (500 nM, 60 min). Neurons were then washed and maintained in protease-free F12 medium. Neuronal excitability was assessed 0 or 30 min after washing. In some experiments, neurons were incubated with vehicle (0.3% DMSO), Dyngo4a (30 μM) or PitStop2 (15 μM) for 30 min before and during incubation with proteases.
# Results are expressed as mean±SE. Two way ANOVA and post hoc Tukey's tests were used to analyze the data.
# [4] = Protease-evoked mechanical hyperalgesia, von Frey paw withdrawal; format: in vivo, mice; details: for Effect on trypsin-evoked mechanical hyperalgesia: 30 min before trypsin
# Protocol: (§4) Immediately before experiments the mice were acclimatized to the experimental apparatus, room and investigator for 1-2 h on 2 successive days. Mechanical nociceptive responses were evaluated by paw withdrawal to stimulation of the plantar surface of the hind-paw with calibrated von Frey filaments. von Frey scores were measured in triplicate to establish a baseline for each animal on the day before experiments. Paw edema was estimated by measuring the thickness of the hindpaw using digital calipers before and after treatments. Mice were […] with 5% isoflurane for intraplantar injections. Dyngo4a (50 μM), PitStop2 (50 μM) or vehicle (0.2% DMSO in 0.9% NaCl) (all 10 μl) were injected into the left hindpaw. After 30 min, trypsin (10 nM), Cat-S (2.5 μM) or elastase (30 U) (all 10 μl) were injected into the same left hindpaw. von Frey scores (left and right paws) and paw thickness (left paw) were measured hourly for up to 4 h after protease injection. Investigators were blinded to the test agents.
# PAR2 [5] = assay: BRET proximity of PAR2 to KRas (plasma membrane) and Rab5a (endosomes) in HEK cells; format: cell-based
# Protocol: as §1
# PAR2 [6] = assay: BRET receptor trafficking, PAR2-RLuc8 with plasma membrane marker RIT-venus in HEK293 cells; format: cell-based; details: for Effect on trypsin evoked internalisation, plasma membrane marker: 30 μM inhibitor, 30 minute pre-treatment
# Protocol: as §2, §3
# [7] = Protease-evoked paw edema, hindpaw thickness; format: in vivo, mice
# Protocol: as §4
# PAR2 [8] = assay: Whole population FRET with cytosolic ERK sensor CytoEKAR in HEK293 cells; format: cell-based
# Protocol: (§5) Förster Resonance Energy Transfer (FRET) was used to characterise PAR2 mediated ERK within different subcellular compartments upon stimulation with different agonists. The assays were repeated after employing pharmacological and genetic approaches shown to abolish receptor internalisation to assess the role of internalisation in generating compartmentalised signals.
# (§6) After achieving ˜50% confluency within 10 cm dishes HEK293 cells were transfected with 2-5 μg of PAR2 with N-terminal HA epitope tag (PAR2-HA) and 2-5 μg of desired FRET biosensor, using PEI as a transfection agent. 24 hours after transfection, cells were seeded into poly-D-lysine coated black 96 well isoplates. FRET was assessed 48 hours after cell plating, following overnight serum restriction. […] When used endocytic inhibitors were diluted in 1×HBSS+1% dimethyl sulfoxide (DMSO). Following the replacement of culture media cells were allowed to equilibrate at 37° C. for 30 minutes. FRET was then determined using a PHERAstar FS microplate reader (BMG LabTech, Offenburg, Germany), cells were sequentially excited at 430 nm with emissions being read at 550 nm and 490 nm. A 4 minute baseline was obtained before the addition of vehicle (1×HBSS+/−1% DMSO), protease or 1 μM PDBu (serving as a positive control). Measurements were then continued every minute for a further 30 minutes. FRET ratios were then calculated and corrected to baseline and vehicle treatments in Microsoft Excel 2013.
# PAR2 [9] = assay: Whole population FRET with nuclear ERK sensor NucEKAR in HEK293 cells; format: cell-based
# Protocol: as §5
# as §6, with “Measurements were then continued every minute for a further 30 minutes.” left out
# [10] = intraplantar 50 μM, 30 min before protease
Molecule,Effect on protease induced PAR2 trafficking away from the trans-golgi network (PAR2 [1]),Effect on trypsin-evoked activation of cytosolic cAMP and PKC and nuclear ERK (PAR2 [2]),"Effect on trypsin evoked internalisation, early endosomal marker (PAR2 [3])",Effect of inhibitor alone on rheobase (DRG neurons),Effect on cathepsin S- or elastase-induced decrease in rheobase (sustained excitability) at 30 min (DRG neurons),Effect on trypsin-induced decrease in rheobase (sustained excitability) at 30 min (DRG neurons),Effect on protease induced decrease in rheobase (initial hyperexcitability) at 0 min (DRG neurons),Effect on trypsin-evoked mechanical hyperalgesia ([4]; intraplantar 50 μM),Effect on trypsin-evoked endocytosis of PAR2 (PAR2 [5]),"Effect on trypsin evoked internalisation, plasma membrane marker (PAR2 [6])",other results
CC[C@@H](N)CNc1ccnc(-c2cc(-c3cnn(C)c3)ccc2O)n1.Cl.Cl [CRT0066101],Less prominent effects,–,–,–,–,–,–,–,–,–,–
"O=C(N/N=C/c1cc(O)c(O)cc1O)c1cc2ccccc2cc1O [Dyngo4a, reference compound]",–,prevented,less pronounced inhibition,"Neither vehicle, PitStop2 nor Dyngo4a alone affected rheobase",no effect and not,prevented,did not affect,inhibited,inhibited,less pronounced inhibition,"Effect on Cat-S- or elastase-evoked mechanical hyperalgesia [4, 10]: did not affect; Effect on trypsin-, Cat-S- or elastase-evoked edema [7, 10]: did not affect"
COc1ccc2c(c1)c(C1=C(c3c[nH]c4ccccc34)C(=O)NC1=O)cn2CCCN(C)C [G06983],Less prominent effects,–,–,–,–,–,–,–,–,–,–
O=C1OC2(c3ccccc31)c1ccc(O)c(O)c1Oc1c2ccc(O)c1O [Gallein],reduced PAR2 trafficking away from the trans-golgi network,–,–,–,–,–,–,–,–,–,–
"O=C1NC(=NS(=O)(=O)c2cccc3ccccc23)S/C1=C\c1ccc(Br)cc1 [PitStop2, reference compound]",–,prevented,reduced the magnitude of BRET,"Neither vehicle, PitStop2 nor Dyngo4a alone affected rheobase",no effect,prevented,did not affect,inhibited,inhibited,reduced the magnitude of BRET,"Effect on cathepsin S- or elastase-induced decrease in rheobase (sustained excitability) at 30 min (DRG neurons; listed as Pitstop2): not; Effect on trypsin evoked cytosolic ERK phosphorylation (PAR2 [8]; 30 μM inhibitor, 30 minute pre-treatment): diminished"
elastase,–,–,–,–,–,–,–,–,–,–,Signals generated by protease in subcellular compartments (PAR2 [2]): only activated cAMP and PKC at the plasma membrane and ERK in the cytosol; Change in BRET between PAR2 and early endosomal marker upon agonist stimulation (PAR2 [3]; trypsin 10 nM): not observed; Effect of protease on excitability (rheobase) of DRG neurons (DRG neurons; 0 min and 30 min after washing): immediate increase in excitability; Mechanical hyperalgesia after intraplantar injection of protease ([4]; ipsilateral paw): caused mechanical hyperalgesia of the ipsilateral paw that was sustained for at least 4 h; Ability of agonist to produce ERK signals within the nucleus (PAR2 [9]): not; PAR2 endocytosis induced by agonist (PAR2 [5]; HEK cells): did not induce PAR2 endocytosis; Ability of agonist to produce ERK signals within the cytoplasm (PAR2 [8]): not; Change in BRET between PAR2 and plasma membrane marker upon agonist stimulation (PAR2 [6]; trypsin 10 nM): not observed; Edema after intraplantar injection of protease ([7]; ipsilateral paw): edema of the ipsilateral paw that was maximal after 4 h
